This passage reports RP-LC retention time results from the METLIN SMRT retention time set (Domingo-Almenara et al. 2019).

The data set in a line: gradient 5% acetonitrile 3 min, to 50% in 2 min, to 85% in 15 min, held 3 min, 100 µL/min. The note with it: column: Zorbax Extend-C18 2.1 x 50 mm; eluents: water / acetonitrile, 0.1% formic acid. A digest of the protocol:
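In both positive and negative ionization mode, a quadrupole time-of-flight mass spectrometer coupled to HPLC analyzed pure standards run in mixtures of ~100 molecules. The Zorbax Extend-C18 column (2.1 × 50 mm, 1.8 μm) was operated at 100 μL/min with water and acetonitrile, each containing 0.1% formic acid. The dead volume was 40 μL and the dwell volume 900 μL. Retention time came from adduct peaks that were computationally picked and individually inspected by hand.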
In turn, `CCOC(=O)c1ccccc1NC(=O)C1CCCN(c2ncnc3c2nc2n3CCCCC2)C1` (centres undefined) came in with an RP-LC retention time of 876 s.
As for `O=C(c1ccsc1)N1CCCN(c2cc(-c3ccc4c(c3)OCO4)[nH]n2)CC1`, the RP-LC retention time was 616 s.
The same measure for `Cc1ccc(S(=O)(=O)N2C(=O)CCC2C(=O)Nc2cccc3ccccc23)cc1` (centres undefined): 933 s; for `COC(=O)c1cccc(Nc2c(-c3ccc(F)cc3)nc3cnccn23)c1`: 830 s.
In turn, `COC(=O)c1ccc(NC(=O)C(=O)NCCN2CCN(c3ccccc3OC)CC2)cc1` showed an RP-LC retention time of 581 s.
Turning to `Cn1nc(-c2nnc(-c3ccc(F)cc3)o2)c2c1CCN(S(=O)(=O)c1ccc(F)c(Cl)c1)C2`, the RP-LC retention time came to 990 s.
In turn, `COc1ccc(N2CCN(c3ncc(S(=O)(=O)c4ccccc4)c(N)n3)CC2)cc1` came in with an RP-LC retention time of 848 s.
In turn, `Cc1cccn2c(Nc3ccc4c(c3)OCCO4)c(-c3ccc(N(C)C)cc3)nc12` displayed an RP-LC retention time of 735 s.
The compound `CCc1sc(NC(=O)CCSc2ccccc2)nc1-c1ccccc1` displayed an RP-LC retention time of 1210 s.
The result for `Cc1ccccc1S(=O)(=O)N1CCC(Cc2nncn2-c2ccccc2)CC1` reads 827 s; that for `Cc1noc(C2CN(C(=O)Nc3ccc(F)cc3F)CC23CCOCC3)n1` (centres undefined), 695 s; that for `CCOC(=O)N1CCN(C(=O)c2sc(NS(=O)(=O)c3ccccc3)nc2C)CC1`, 651 s.
`CCN(CC)c1nc(-c2cccc(C)c2)nnc1C` came in with an RP-LC retention time of 719 s.
Compound `CCCNc1cc(N2CCC(CCC(=O)N3CCN(C(=O)OCC)CC3)CC2)ncn1` came in with an RP-LC retention time of 620 s.
The same measure for `O=c1c2cc(-c3ccc(F)cc3)nn2ccn1Cc1noc(CN2CCc3ccccc32)n1`: 1050 s.
In turn, `COc1nn(C)cc1C(=O)NCc1cc(-c2ccco2)on1` came in with an RP-LC retention time of 644 s.
On to `CC1(C)CC(=O)c2cn(-c3ccccc3)c(=O)c(C(=O)Nc3cc(F)ccc3F)c2C1`, for which the RP-LC retention time stood at 1030 s.
On to `Cc1cc(=O)n(CC(=O)Nc2ccc(Cl)cc2)c(N2CCCCC2)n1`, for which the RP-LC retention time was found to be 708 s.
With `O=C(c1ccccn1)N1CCC(n2c(-c3ccoc3)nc3cccnc32)C1` (centres undefined), the RP-LC retention time came out at 631 s.
Compound `O=C(CSc1ncccn1)N1CCC(Cc2ccccc2)CC1` registered an RP-LC retention time of 820 s.
Compound `CCOCCCNC(=O)c1ccc(OCc2nnc(C(=O)Nc3ccc(F)c(F)c3)s2)cc1` displayed an RP-LC retention time of 912 s.
In turn, `Cc1nc(N2CCOCC2)c2c(C(=O)N3CCN(c4ccc(Cl)cc4)CC3)c(C)oc2n1` returned an RP-LC retention time of 895 s.
As for `CCOC(=O)c1c(S(=O)(=O)N2CCC(C(=O)NCc3ccc(C)cc3)CC2)c(C)n(CC)c1C`, the RP-LC retention time is 895 s.
For `CCOc1ccc(NC(=O)Cn2cccc2-c2nnc(C3CCC3)o2)cc1`, the RP-LC retention time was determined as 912 s.
In turn, `CCc1cccc(NC(=O)Cn2c(N)nc(COC)cc2=O)c1` gave an RP-LC retention time of 650 s.
The same measure for `Cc1cccc(OCC(=O)N2CCc3cc(-c4csc(C)n4)ccc32)c1`: 847 s; for `CNC(=O)CCc1nc2ccccc2n(CC(=O)NCc2ccc(C)cc2)c1=O`: 695 s; for `CCC(C)C(NC(=O)Cc1cccc(F)c1)C(=O)Nc1nc2ccccc2[nH]1` (centres undefined): 736 s.
In turn, `CC(C)CN1CCN(C(=O)C2CCCN(c3cnc4nccnc4c3)C2)CC1` (centres undefined) had an RP-LC retention time of 564 s.
For the compound `CS(=O)(=O)N(C1CCOCC1)C1CCN(S(=O)(=O)Cc2ccccc2)CC1`, the RP-LC retention time was found to be 779 s.
`Fc1cc(F)cc(-c2nnc(Cc3nc(-c4ccc(Br)cc4)no3)o2)c1` returned an RP-LC retention time of 1150 s.
As to `O=C(Cn1ccc2ccccc21)N1CCN(c2ccc(F)cc2)CC1`, the RP-LC retention time came out at 884 s.
The compound `CCC(=O)Nc1cccc(-c2nnc3n2CCC3)c1` yielded an RP-LC retention time of 588 s.
For the compound `COc1ccc(CNC(=O)C2CCCN(c3nnc4ccc(Cl)cn34)C2)cc1OC` (centres undefined), the RP-LC retention time came to 685 s.
Take `COc1ccc(-n2c(=O)n(C)c(=O)c3cc(C(=O)Nc4ccc(C)cc4F)cnc32)cc1`: the RP-LC retention time turned out to be 849 s.
For `COc1ccc(NC(=O)N2CCC(c3nc(C(=O)N4CCOCC4)c(C)o3)CC2)cc1`, the RP-LC retention time is 660 s.
Take `COc1ccccc1-c1nc2nccc(-c3cccnc3)n2n1`: the RP-LC retention time is 655 s.
The same measure for `CCn1cc2c3c(cccc31)CN(C(=O)Nc1ccc(SC)cc1)CC2`: 984 s.
The same measure for `COC(=O)c1ncn2c1C(=O)N(c1ccc(C(C)C)cc1)C(C)(C(=O)NC1CCCC1)C2` (centres undefined): 817 s; for `C=CCN1C(=O)COc2ccc(-c3nc(NC(=O)c4cc(OC)cc(OC)c4)sc3C)cc21`: 1090 s; for `COc1ccccc1C1(CNC(=O)c2ccco2)CCOCC1`: 709 s.
Consider `O=C(NCc1ccc(-c2nc(-c3cccs3)no2)s1)C1CCC1`, for which the RP-LC retention time was 910 s.
On to `O=C(NCc1ccc(F)cc1)C1CCN(c2cc(N3CCSCC3)ncn2)CC1`, for which the RP-LC retention time is 666 s.
On to `CCOc1cc2c(cc1OCC)C1C(C(=O)N3CCOCC3)c3ccccc3C(=O)N1CC2` (centres undefined), for which the RP-LC retention time stood at 744 s.
`COc1ccc(-c2cn3c(CC(=O)N4CCCc5ccccc54)csc3n2)cc1OC` returned an RP-LC retention time of 775 s.
`CCOc1ccccc1CNC(=O)C1CCCN(c2ncnc3c2oc2ccccc23)C1` (centres undefined) displayed an RP-LC retention time of 813 s.
The result for `COC(=O)c1c(C)[nH]c(C(=O)N2CCCC(C(=O)N3CCN(c4ccccc4)CC3)C2)c1C` (centres undefined) reads 790 s.
On to `CCOC(=O)C1=C(C)NC2=C(C(=O)c3ccccc32)C1c1ccc(OC)c(OC)c1` (centres undefined), for which the RP-LC retention time was 902 s.
The same measure for `CCCN(CCC)c1nc(-c2ccc(OC)cc2)nc2ccccc12`: 896 s; for `O=C(CCCc1ccccc1)N1CCN(c2cc(-c3cccs3)[nH]n2)CC1`: 860 s.
On to `Cc1cc(Cl)ccc1S(=O)(=O)N1CCCC1c1nc(-c2cccc(F)c2)no1` (centres undefined), for which the RP-LC retention time is 1220 s.
`O=C(CCN1CCN(CCO)CC1)N1c2ccccc2Sc2ccc(C(F)(F)F)cc21`: the RP-LC retention time stood at 673 s.
The compound `Cc1cc2[nH]c(C(=O)Nc3cc(F)ccc3C)c(CN3CCOCC3)c2s1` gave an RP-LC retention time of 678 s.
With `CC(NC(=O)Cc1c(F)cccc1Cl)C(=O)N1CCN(c2ccccn2)CC1` (centres undefined), the RP-LC retention time worked out at 599 s.
For the compound `COc1ccc(N2CC(c3nc(-c4ccccc4F)no3)CC2=O)cc1` (centres undefined), the RP-LC retention time was determined as 865 s.
The result for `CSc1ccccc1NC(=O)c1cn2c(n1)CCCC2` reads 638 s.
The result for `Cc1nc2cc(N3CCC(C(=O)NCc4cccs4)CC3)cnc2nc1C` reads 670 s; that for `O=C(COc1ccc(Cl)cc1)N1CCN(c2cc(-c3cccs3)[nH]n2)CC1`, 864 s.
Regarding `CSc1nc(N2CCCC2)c2cnn(CCNC(=O)CSc3nnnn3C)c2n1`, the RP-LC retention time worked out at 651 s.
`COCCc1noc(COC2CCCN(C(=O)c3ccoc3)C2)n1` (centres undefined) yielded an RP-LC retention time of 668 s.
`Cc1nn2c(CNS(=O)(=O)Cc3cccc(F)c3)c(-c3ccccc3)nc2s1` displayed an RP-LC retention time of 935 s.
For the compound `Cc1cc2nc(C(=O)NCC(C)C)c(=O)n(C)c2cc1C`, the RP-LC retention time was determined as 668 s.
For `CCCNC(=O)CCc1nc2ccccc2n(CC(=O)Nc2cccc(CC)c2)c1=O`, the RP-LC retention time came out at 845 s.
`Cc1cccc(C2CC(=O)c3cnc(N4CCN(c5ccccn5)CC4)nc3C2)c1` (centres undefined) returned an RP-LC retention time of 737 s.
Take `O=C(NCc1ccc2c(c1)OCO2)C1CCCN(c2cnc3ccccc3n2)C1` (centres undefined): the RP-LC retention time came out at 736 s.
`CCc1cccc(NC(=O)Nc2cccc(-c3ccc(N4CCOCC4)nn3)c2)c1` gave an RP-LC retention time of 770 s.
The same measure for `CN(C)c1ccc(Nc2nc(-c3ccc(Br)cc3)cs2)cc1`: 787 s; for `CCC(C)CN(CC(=O)N1CCc2sccc2C1COc1ccc(F)cc1)C(=O)COC` (centres undefined): 962 s; for `CCc1nnc2ccc(S(=O)(=O)Nc3ccc(F)cc3)cn12`: 707 s.
As to `CCC(C)NC(=O)C1CCC(=O)N(c2ccc(OC)cc2)C1c1ccc(OC)c(OC)c1` (centres undefined), the RP-LC retention time turned out to be 638 s.
The result for `CC(=O)Nc1ccc(OCC(=O)NCc2cc(F)ccc2F)nc1` reads 681 s; that for `COc1ccc(OC)c(S(=O)(=O)NCc2ccc3c(c2)CCN3C(=O)c2ccccc2)c1`, 896 s.
In the case of `O=C(c1c(F)cccc1F)N(CC1CCOC1)C1CC1` (centres undefined), the RP-LC retention time came to 769 s.
Regarding `Cc1ccccc1NS(=O)(=O)c1ccc2c(c1)CCCC(=O)N2`, the RP-LC retention time is 725 s.
In turn, `Cc1ccc(Cc2nc(-c3ccc4c(c3)nnn4CCN3CCOCC3)no2)cc1` came in with an RP-LC retention time of 703 s.
With `CCn1c(N2CCCC(C(=O)NCCN3CCN(c4ccccc4)CC3)C2)cc(=O)n(C)c1=O` (centres undefined), the RP-LC retention time turned out to be 638 s.
In turn, `CCc1ccc(S(=O)(=O)NCC2CCN(C(=O)Nc3ccccc3OC)CC2)s1` showed an RP-LC retention time of 878 s.
The same measure for `Cc1cc(C)cc(NC(=O)N2CCC(OC3CCN(S(C)(=O)=O)CC3)CC2)c1`: 718 s; for `O=C(CCc1csc2nc(C3CC3)cn12)NCc1ccc(OC(F)(F)F)cc1`: 612 s.
